How the values were obtained:
cmES cells [1] = experiment: Immunohistochemical staining of marker proteins in EBs from cmES cells; assay type: cell-based, common marmoset; details: EBs at 16 days after induction of differentiation
Method: Subsequently, immunohistochemical staining was performed in the same manner as used in Example 2 to confirm that beating cells developed in EBs from the Wnt-treated groups were cardiomyocytes producing specific marker proteins. From EBs in the Wnt-treated groups (Wnt-3a, WNT-1) at 16 days after induction of differentiation, frozen sections were prepared and reacted with anti-sarcomeric myosin antibody, anti-GATA-4 antibody or anti-Nkx-2.5 antibody as a primary antibody. After color reaction, these sections were observed under an optical microscope.

cmES cells [2] = experiment: Marker gene expression in EBs from cmES cells (RT-PCR); assay type: cell-based, common marmoset; details: EBs at 10 days after induction; vs untreated group
Method: The EBs thus prepared were collected periodically, and total RNA was prepared with an RNeasy mini kit (Qiagen). cDNA was then synthesized with reverse transcriptase and analyzed by PCR to detect expression of common marmoset Wnt-3 gene (cmWnt-3) and β-actin (cmβActin) serving as an endogenous control. The primers used for detection are as shown below.
Moreover, for analysis of expressed genes, EBs were collected at 10 days after induction of differentiation to detect expression of various marker genes in the same manner as used in Example 5. The primers used for detection of common marmoset Nestin, ANP, MLC-2a and MLC-2v transcripts (hereinafter referred to as cmNestin, cmANP, cmMLC-2a and cmMLC-2v, respectively) are as shown below.

mouse ES cells [3] = details: added for 3 days after initiation of differentiation induction (Naito et al.); cited from earlier work
mouse ES cells [4] = experiment: Appearance rate of EBs exhibiting spontaneous beating; assay type: cell-based
Method: Culture for inducing differentiation of ES cells into cardiomyocytes or neurons was accomplished in a routine manner as follows. ES cells were suspended in LIF-free medium, and the resulting suspension was seeded at 500 cells/50 μL per well of a commercially available 96-well culture plate for spheroid formation (Sumilon Celltight Spheroid; Sumitomo Bakelite Co., Ltd., Japan).
In the early stage of differentiation in ES cells, transient elevations in expression of various Wnt genes were observed prior to the appearance of cardiomyocytes. Then, ES cells at this stage were treated with recombinant Wnt proteins to study the myocardial differentiation-inducing effect of the proteins. Induction of ES cell differentiation was accomplished in the same manner as used in Example 1, except that some of the experimental groups were cultured in medium containing a commercially available recombinant WNT-1 (Peprotech), Wnt-3a (R&D systems) or Wnt-5a (R&D systems) protein. Treatment of ES cells in medium supplemented with a recombinant protein of canonical Wnt such as WNT-1 is hereinafter referred to as “Wnt treatment.”
The above canonical Wnt protein treatment is known to inhibit the action of GSK3β within cells and thereby promote stabilization of β-catenin and its transcription activation ability. Then, further studies were performed to confirm that treatment with various drugs capable of promoting stabilization of β-catenin and its transcription activation ability produced a myocardial differentiation-inducing effect on ES cells, as in the case of Wnt treatment. As drugs capable of promoting stabilization of β-catenin and its transcription activation ability, the following five commercially available compounds were used: GSK3β inhibitors BIO (Calbiochem), GSK3β inhibitor VII (Calbiochem), cell-permeable GSK3β peptide inhibitor (L803-mts; Calbiochem) and SB216763 (Biomol), as well as a Wnt agonist (Calbiochem) that promotes the transcription activation ability of β-catenin without GSK3β inhibition. ES cells were induced to differentiate in the same manner as used in the above Examples, and cultured in medium containing the above compounds during the time period between 48 and 120 hours ([…]) after induction of differentiation, as in the case of recombinant Wnt proteins.

Wnt-3a
cells positive for sarcomeric myosin, GATA-4 and Nkx-2.5 (cmES cells [1]): the great majority of EB-constituting cells were found to be positive
expression of cardiomyocyte marker genes cmANP, cmMLC-2a and cmMLC-2v (cmES cells [2]): significantly stronger expression
effect on myocardial differentiation from ES cells (mouse ES cells [3]): promote myocardial differentiation from ES cells
occurrence of beating EBs (mouse ES cells [4]; Wnt proteins added at 10 ng/mL to 50 ng/mL): very good occurrence of beating EBs
appearance rate of beating EBs (mouse ES cells [4]; recombinant protein added at 1 ng/mL to 100 ng/mL): significantly higher than in the untreated group
promoting effect on differentiation (mouse ES cells [4]; similar studies by the applicant, added for 3 days after initiation of induction (Example 2)): no significant promoting effect on differentiation

From patent publication US8293529B2, “Method for inducing differentiation of pluripotent stem cells into cardiomyocytes” (Daiichi Sankyo Company, Limited, priority 2006, dated 2012)
